Test results as given in PubChem BioAssay AID1963972 (Molecular Pharmacology Branch, DTP, NCI, 2024).
pIC50: −log10 of the molar value.

Test system: 945468-187-T-J2-PDC spheroids viability
Assay: Anticancer human tumor 945468-187-T-J2-PDC patient-derived rectal carcinoma cell line growth inhibition [PI3K]
Conditions: spheroids with HUVEC and MSC; for pIC50: curve of first compound; for viability, T/C: stronger effect = lower value
Summary of the method: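 We assembled tumor spheroids that included a stromal compartment of HUVEC and MSCs, then exposed them to targeted agents alone and together with PI3K pathway inhibitors. Concentration series descended by half-log from clinically achievable Cmax levels. Viability served as the endpoint.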

[1] = second compound 0.00316 µM, first compound 0.000316 µM
[2] = second compound 0.00316 µM, first compound 0.001 µM
[3] = second compound 0.00316 µM, first compound 0.00316 µM
[4] = second compound 0.00316 µM, first compound 0.01 µM
[5] = second compound 0.00316 µM, first compound 0.0316 µM
[6] = second compound 0.00316 µM, first compound 0.1 µM
[7] = second compound 0.01 µM, first compound 0.000316 µM
[8] = second compound 0.01 µM, first compound 0.001 µM
[9] = second compound 0.01 µM, first compound 0.00316 µM
[10] = second compound 0.01 µM, first compound 0.01 µM
[11] = second compound 0.01 µM, first compound 0.0316 µM
[12] = second compound 0.01 µM, first compound 0.1 µM
[13] = second compound 0.0316 µM, first compound 0.000316 µM
[14] = second compound 0.0316 µM, first compound 0.001 µM
[15] = second compound 0.0316 µM, first compound 0.00316 µM
[16] = second compound 0.0316 µM, first compound 0.01 µM
[17] = second compound 0.0316 µM, first compound 0.0316 µM
[18] = second compound 0.0316 µM, first compound 0.1 µM
[19] = second compound 0.1 µM, first compound 0.000316 µM
[20] = second compound 0.1 µM, first compound 0.001 µM
[21] = second compound 0.1 µM, first compound 0.00316 µM
[22] = second compound 0.1 µM, first compound 0.01 µM
[23] = second compound 0.1 µM, first compound 0.0316 µM
[24] = second compound 0.1 µM, first compound 0.1 µM
[25] = second compound 0.316 µM, first compound 0.000316 µM
[26] = second compound 0.316 µM, first compound 0.001 µM
[27] = second compound 0.316 µM, first compound 0.00316 µM
[28] = second compound 0.316 µM, first compound 0.01 µM
[29] = second compound 0.316 µM, first compound 0.0316 µM
[30] = second compound 0.316 µM, first compound 0.1 µM
[31] = second compound 1 µM, first compound 0.000316 µM
[32] = second compound 1 µM, first compound 0.001 µM
[33] = second compound 1 µM, first compound 0.00316 µM
[34] = second compound 1 µM, first compound 0.01 µM
[35] = second compound 1 µM, first compound 0.0316 µM
[36] = second compound 1 µM, first compound 0.1 µM
[37] = second compound 0.00316 µM, first compound 0.316 µM
[38] = second compound 0.00316 µM, first compound 1 µM
[39] = second compound 0.00316 µM, first compound 3.16 µM
[40] = second compound 0.00316 µM, first compound 10 µM
[41] = second compound 0.01 µM, first compound 0.316 µM
[42] = second compound 0.01 µM, first compound 1 µM
[43] = second compound 0.01 µM, first compound 3.16 µM
[44] = second compound 0.01 µM, first compound 10 µM
[45] = second compound 0.0316 µM, first compound 0.316 µM
[46] = second compound 0.0316 µM, first compound 1 µM
[47] = second compound 0.0316 µM, first compound 3.16 µM
[48] = second compound 0.0316 µM, first compound 10 µM
[49] = second compound 0.1 µM, first compound 0.316 µM
[50] = second compound 0.1 µM, first compound 1 µM
[51] = second compound 0.1 µM, first compound 3.16 µM
[52] = second compound 0.1 µM, first compound 10 µM
[53] = second compound 0.316 µM, first compound 0.316 µM
[54] = second compound 0.316 µM, first compound 1 µM
[55] = second compound 0.316 µM, first compound 3.16 µM
[56] = second compound 0.316 µM, first compound 10 µM
[57] = second compound 1 µM, first compound 0.316 µM
[58] = second compound 1 µM, first compound 1 µM
[59] = second compound 1 µM, first compound 3.16 µM
[60] = second compound 1 µM, first compound 10 µM
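Also: spheroids exposed to compounds for seven days before reading.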

Question: What does the source list for `CC(=O)c1c(C)c2cnc(Nc3ccc(N4CCNCC4)cn3)nc2n(C2CCCC2)c1=O` + COc1c(OCCCN2CCOCC2)ccc2c3n(c(=NC(=O)c4cnc(N)nc4)nc12)CCN3?
Answer: pIC50 (second compound 0.00316 µM): < 7.00; pIC50 (second compound 0.01 µM): < 7.00; pIC50 (second compound 0.0316 µM): < 7.00; pIC50 (second compound 0.1 µM): < 7.00; pIC50 (second compound 0.316 µM): > 9.50; pIC50 (second compound 1 µM): > 9.50; viability, T/C [1]: 101%; viability, T/C [2]: 96.6%; viability, T/C [3]: 110%; viability, T/C [4]: 103%; viability, T/C [5]: 96.3%; viability, T/C [6]: 112%; viability, T/C [7]: 135%; viability, T/C [8]: 135%; viability, T/C [9]: 120%; viability, T/C [10]: 108%; viability, T/C [11]: 110%; viability, T/C [12]: 130%; viability, T/C [13]: 115%; viability, T/C [14]: 95.4%; viability, T/C [15]: 101%; viability, T/C [16]: 105%; viability, T/C [17]: 118%; viability, T/C [18]: 113%; viability, T/C [19]: 102%; viability, T/C [20]: 101%; viability, T/C [21]: 115%; viability, T/C [22]: 80%; viability, T/C [23]: 85.5%; viability, T/C [24]: 89.9%; viability, T/C [25]: 38.6%; viability, T/C [26]: 36.7%; viability, T/C [27]: 45.7%; viability, T/C [28]: 40.9%; viability, T/C [29]: 36.2%; viability, T/C [30]: 37.4%; viability, T/C [31]: 24.2%; viability, T/C [32]: 21.4%; viability, T/C [33]: 28.7%; viability, T/C [34]: 21.6%; viability, T/C [35]: 22.8%; viability, T/C [36]: 18.5%

Question: What does the source list for `CC(C)n1nc(-c2ccc3oc(N)nc3c2)c2c(N)ncnc21` + COc1c(OCCCN2CCOCC2)ccc2c3n(c(=NC(=O)c4cnc(N)nc4)nc12)CCN3?
Answer: pIC50 (second compound 0.00316 µM): < 7.00; pIC50 (second compound 0.01 µM): < 7.00; pIC50 (second compound 0.0316 µM): 7.22; pIC50 (second compound 0.1 µM): 7.69; pIC50 (second compound 0.316 µM): > 9.50; pIC50 (second compound 1 µM): > 9.50; viability, T/C [1]: 82.4%; viability, T/C [2]: 83.8%; viability, T/C [3]: 81.7%; viability, T/C [4]: 84.3%; viability, T/C [5]: 73.6%; viability, T/C [6]: 61.1%; viability, T/C [7]: 120%; viability, T/C [8]: 109%; viability, T/C [9]: 80.7%; viability, T/C [10]: 82.7%; viability, T/C [11]: 66.6%; viability, T/C [12]: 66.1%; viability, T/C [13]: 77.1%; viability, T/C [14]: 85.8%; viability, T/C [15]: 116%; viability, T/C [16]: 86%; viability, T/C [17]: 79.1%; viability, T/C [18]: 27.4%; viability, T/C [19]: 76.2%; viability, T/C [20]: 76.2%; viability, T/C [21]: 61.5%; viability, T/C [22]: 75.6%; viability, T/C [23]: 36.2%; viability, T/C [24]: 16.7%; viability, T/C [25]: 36.5%; viability, T/C [26]: 31.8%; viability, T/C [27]: 26.5%; viability, T/C [28]: 25.4%; viability, T/C [29]: 17.6%; viability, T/C [30]: 10.9%; viability, T/C [31]: 20.2%; viability, T/C [32]: 22.1%; viability, T/C [33]: 17.7%; viability, T/C [34]: 13.8%; viability, T/C [35]: 12.1%; viability, T/C [36]: 11.3%

Question: `CCCS(=O)(=O)Nc1ccc(F)c(C(=O)c2c[nH]c3ncc(-c4ccc(Cl)cc4)cc23)c1F` + COc1c(OCCCN2CCOCC2)ccc2c3n(c(=NC(=O)c4cnc(N)nc4)nc12)CCN3 was tested. Which pIC50 (second compound 0.00316 µM) did it give?
Answer: 5.24

Question: And the pIC50 (second compound 0.01 µM)?
Answer: 5.19

Question: And the pIC50 (second compound 0.0316 µM)?
Answer: 5.25

Question: And the pIC50 (second compound 0.1 µM)?
Answer: 5.22

Question: And the pIC50 (second compound 0.316 µM)?
Answer: > 7.50

Question: And the pIC50 (second compound 1 µM)?
Answer: > 7.50

Question: What about the viability, T/C [5] of the same molecule?
Answer: 95.3%

Question: And the viability, T/C [6]?
Answer: 106%

Question: What about the viability, T/C [37] of the same molecule?
Answer: 111%

Question: And the viability, T/C [38]?
Answer: 116%

Question: What about the viability, T/C [39] of the same molecule?
Answer: 89.2%

Question: What about the viability, T/C [40] of the same molecule?
Answer: 14.6%

Question: What about the viability, T/C [11] of the same molecule?
Answer: 109%

Question: What about the viability, T/C [12] of the same molecule?
Answer: 82%

Question: And the viability, T/C [41]?
Answer: 79.8%

Question: What about the viability, T/C [42] of the same molecule?
Answer: 92.5%

Question: What about the viability, T/C [43] of the same molecule?
Answer: 105%

Question: And the viability, T/C [44]?
Answer: 22.9%

Question: What about the viability, T/C [17] of the same molecule?
Answer: 100%

Question: And the viability, T/C [18]?
Answer: 91.4%

Question: What about the viability, T/C [45] of the same molecule?
Answer: 90.2%

Question: And the viability, T/C [46]?
Answer: 103%

Question: And the viability, T/C [47]?
Answer: 75.2%

Question: And the viability, T/C [48]?
Answer: 24.2%

Question: And the viability, T/C [23]?
Answer: 73.1%

Question: And the viability, T/C [24]?
Answer: 90.5%

Question: What about the viability, T/C [49] of the same molecule?
Answer: 77.7%

Question: What about the viability, T/C [50] of the same molecule?
Answer: 77.6%

Question: What about the viability, T/C [51] of the same molecule?
Answer: 77.2%

Question: What about the viability, T/C [52] of the same molecule?
Answer: 29%

Question: What about the viability, T/C [29] of the same molecule?
Answer: 38.7%

Question: And the viability, T/C [30]?
Answer: 37%

Question: What about the viability, T/C [53] of the same molecule?
Answer: 36.9%

Question: And the viability, T/C [54]?
Answer: 34%

Question: And the viability, T/C [55]?
Answer: 35.3%

Question: And the viability, T/C [56]?
Answer: 21.5%

Question: What about the viability, T/C [35] of the same molecule?
Answer: 21.4%

Question: And the viability, T/C [36]?
Answer: 22.6%

Question: What about the viability, T/C [57] of the same molecule?
Answer: 21.9%

Question: What about the viability, T/C [58] of the same molecule?
Answer: 19.5%

Question: And the viability, T/C [59]?
Answer: 25.7%

Question: What about the viability, T/C [60] of the same molecule?
Answer: 15.6%

Question: Which results are given for `CNC(=O)c1ccc(N2C(=S)N(c3ccc(C#N)c(C(F)(F)F)c3)C(=O)C2(C)C)cc1F` + COc1c(OCCCN2CCOCC2)ccc2c3n(c(=NC(=O)c4cnc(N)nc4)nc12)CCN3?
Answer: pIC50 (second compound 0.00316 µM): < 5.00; pIC50 (second compound 0.01 µM): < 5.00; pIC50 (second compound 0.0316 µM): < 5.00; pIC50 (second compound 0.1 µM): < 5.00; pIC50 (second compound 0.316 µM): > 7.50; pIC50 (second compound 1 µM): > 7.50; viability, T/C [5]: 107%; viability, T/C [6]: 86.3%; viability, T/C [37]: 94.9%; viability, T/C [38]: 113%; viability, T/C [39]: 91.1%; viability, T/C [40]: 80%; viability, T/C [11]: 95.5%; viability, T/C [12]: 92.2%; viability, T/C [41]: 108%; viability, T/C [42]: 110%; viability, T/C [43]: 90.9%; viability, T/C [44]: 72.1%; viability, T/C [17]: 87.8%; viability, T/C [18]: 93.1%; viability, T/C [45]: 113%; viability, T/C [46]: 111%; viability, T/C [47]: 93%; viability, T/C [48]: 109%; viability, T/C [23]: 102%; viability, T/C [24]: 94%; viability, T/C [49]: 95.9%; viability, T/C [50]: 81.2%; viability, T/C [51]: 82%; viability, T/C [52]: 64.4%; viability, T/C [29]: 33.8%; viability, T/C [30]: 39.6%; viability, T/C [53]: 48.2%; viability, T/C [54]: 38.6%; viability, T/C [55]: 38.5%; viability, T/C [56]: 34.7%; viability, T/C [35]: 18.2%; viability, T/C [36]: 21.1%; viability, T/C [57]: 17.2%; viability, T/C [58]: 23.1%; viability, T/C [59]: 23.3%; viability, T/C [60]: 21%
